Results: ChEMBL document CHEMBL3991601, “The target landscape of clinical kinase drugs” (Science, 2017)
Calls of active or inactive are those of the source.

Tests used:
[1] = molecular target: T1, Acyl-CoA dehydrogenase family member 10 (Homo sapiens, UniProt Q6JQN1)
T1 sequence (Q6JQN1 whole entry): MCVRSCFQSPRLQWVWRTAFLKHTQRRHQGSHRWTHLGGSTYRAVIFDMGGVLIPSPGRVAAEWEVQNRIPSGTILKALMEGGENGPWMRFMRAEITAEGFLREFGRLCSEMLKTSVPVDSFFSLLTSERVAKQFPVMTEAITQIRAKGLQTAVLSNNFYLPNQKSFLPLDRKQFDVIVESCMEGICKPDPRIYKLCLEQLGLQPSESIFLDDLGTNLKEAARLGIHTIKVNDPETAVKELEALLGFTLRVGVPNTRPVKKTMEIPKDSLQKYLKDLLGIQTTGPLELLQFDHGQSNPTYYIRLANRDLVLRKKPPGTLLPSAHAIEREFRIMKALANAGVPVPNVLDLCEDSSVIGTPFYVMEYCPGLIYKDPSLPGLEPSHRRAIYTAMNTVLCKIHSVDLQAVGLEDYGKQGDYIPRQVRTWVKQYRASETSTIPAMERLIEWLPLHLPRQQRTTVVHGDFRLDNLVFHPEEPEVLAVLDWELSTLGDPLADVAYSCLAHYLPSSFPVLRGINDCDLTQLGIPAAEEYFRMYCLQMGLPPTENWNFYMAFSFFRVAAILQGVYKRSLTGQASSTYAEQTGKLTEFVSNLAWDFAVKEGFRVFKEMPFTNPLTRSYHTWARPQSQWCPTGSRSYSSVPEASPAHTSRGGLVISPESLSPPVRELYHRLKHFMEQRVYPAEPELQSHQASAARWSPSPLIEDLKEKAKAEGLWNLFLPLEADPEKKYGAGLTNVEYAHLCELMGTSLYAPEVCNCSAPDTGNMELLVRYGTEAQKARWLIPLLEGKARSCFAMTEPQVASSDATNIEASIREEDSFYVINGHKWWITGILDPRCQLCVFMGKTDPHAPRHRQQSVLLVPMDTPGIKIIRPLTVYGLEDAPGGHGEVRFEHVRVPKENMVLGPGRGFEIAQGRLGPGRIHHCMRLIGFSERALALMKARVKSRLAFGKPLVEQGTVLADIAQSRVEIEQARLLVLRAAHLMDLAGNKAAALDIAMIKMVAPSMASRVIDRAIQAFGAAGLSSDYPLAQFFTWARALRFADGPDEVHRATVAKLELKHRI

[2] = molecular target: Activin receptor type-2B (Homo sapiens, UniProt Q13705)
Activin receptor type-2B, sequence (Q13705 whole entry): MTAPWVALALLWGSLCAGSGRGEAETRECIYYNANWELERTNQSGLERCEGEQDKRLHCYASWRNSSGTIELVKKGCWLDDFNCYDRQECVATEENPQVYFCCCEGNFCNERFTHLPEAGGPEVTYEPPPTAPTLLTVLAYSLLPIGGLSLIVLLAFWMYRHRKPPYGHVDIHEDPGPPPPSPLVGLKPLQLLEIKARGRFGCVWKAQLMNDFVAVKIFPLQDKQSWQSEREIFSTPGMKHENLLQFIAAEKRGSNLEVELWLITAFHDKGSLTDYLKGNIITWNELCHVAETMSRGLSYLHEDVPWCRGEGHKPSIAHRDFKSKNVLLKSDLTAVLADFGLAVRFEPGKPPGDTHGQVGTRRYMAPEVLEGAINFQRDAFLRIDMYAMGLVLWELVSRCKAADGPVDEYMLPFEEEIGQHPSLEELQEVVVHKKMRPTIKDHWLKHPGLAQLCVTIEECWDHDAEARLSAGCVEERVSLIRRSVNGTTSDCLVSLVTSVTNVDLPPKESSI

[3] = molecular target: Ephrin type-A receptor 2 (Homo sapiens, UniProt P29317)
Ephrin type-A receptor 2, sequence (P29317 whole entry): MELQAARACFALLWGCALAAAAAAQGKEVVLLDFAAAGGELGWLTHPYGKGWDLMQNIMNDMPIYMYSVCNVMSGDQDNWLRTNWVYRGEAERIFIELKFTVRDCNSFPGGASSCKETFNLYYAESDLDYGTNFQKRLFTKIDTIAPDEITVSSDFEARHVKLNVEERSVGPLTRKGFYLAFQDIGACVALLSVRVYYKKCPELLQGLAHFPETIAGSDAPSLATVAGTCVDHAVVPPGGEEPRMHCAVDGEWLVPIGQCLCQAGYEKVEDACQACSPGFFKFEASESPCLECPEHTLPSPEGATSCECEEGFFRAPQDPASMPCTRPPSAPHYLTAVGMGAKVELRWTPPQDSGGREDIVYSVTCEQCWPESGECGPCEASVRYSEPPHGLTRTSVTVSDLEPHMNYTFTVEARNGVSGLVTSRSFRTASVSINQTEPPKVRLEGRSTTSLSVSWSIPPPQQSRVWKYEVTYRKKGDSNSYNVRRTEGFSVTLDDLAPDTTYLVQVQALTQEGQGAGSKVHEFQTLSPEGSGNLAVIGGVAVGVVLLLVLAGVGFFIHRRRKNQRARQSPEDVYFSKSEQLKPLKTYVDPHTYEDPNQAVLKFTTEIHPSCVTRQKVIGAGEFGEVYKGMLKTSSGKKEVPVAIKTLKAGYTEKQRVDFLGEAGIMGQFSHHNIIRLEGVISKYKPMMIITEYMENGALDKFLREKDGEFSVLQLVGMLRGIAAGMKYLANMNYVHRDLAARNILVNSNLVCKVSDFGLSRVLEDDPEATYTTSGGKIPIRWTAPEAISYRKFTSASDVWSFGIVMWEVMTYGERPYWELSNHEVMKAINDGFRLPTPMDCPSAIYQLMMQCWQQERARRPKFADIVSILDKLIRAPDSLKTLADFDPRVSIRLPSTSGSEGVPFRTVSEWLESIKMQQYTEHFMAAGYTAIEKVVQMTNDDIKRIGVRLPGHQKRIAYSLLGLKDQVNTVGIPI

[4] = molecular target: cAMP-dependent protein kinase catalytic subunit alpha (Homo sapiens, UniProt P17612)
[5] = molecular target: T2, Ras-related protein Rab-10 (Homo sapiens, UniProt P61026)
T2 sequence (P61026 whole entry): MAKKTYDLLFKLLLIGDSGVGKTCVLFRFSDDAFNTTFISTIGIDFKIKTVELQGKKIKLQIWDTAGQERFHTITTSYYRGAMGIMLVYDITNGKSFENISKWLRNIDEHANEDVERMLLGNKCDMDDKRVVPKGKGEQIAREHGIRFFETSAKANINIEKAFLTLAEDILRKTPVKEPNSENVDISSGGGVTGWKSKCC

[6] = molecular target: T3, Exosome RNA helicase MTR4 (Homo sapiens, UniProt P42285)
T3 sequence (P42285 whole entry): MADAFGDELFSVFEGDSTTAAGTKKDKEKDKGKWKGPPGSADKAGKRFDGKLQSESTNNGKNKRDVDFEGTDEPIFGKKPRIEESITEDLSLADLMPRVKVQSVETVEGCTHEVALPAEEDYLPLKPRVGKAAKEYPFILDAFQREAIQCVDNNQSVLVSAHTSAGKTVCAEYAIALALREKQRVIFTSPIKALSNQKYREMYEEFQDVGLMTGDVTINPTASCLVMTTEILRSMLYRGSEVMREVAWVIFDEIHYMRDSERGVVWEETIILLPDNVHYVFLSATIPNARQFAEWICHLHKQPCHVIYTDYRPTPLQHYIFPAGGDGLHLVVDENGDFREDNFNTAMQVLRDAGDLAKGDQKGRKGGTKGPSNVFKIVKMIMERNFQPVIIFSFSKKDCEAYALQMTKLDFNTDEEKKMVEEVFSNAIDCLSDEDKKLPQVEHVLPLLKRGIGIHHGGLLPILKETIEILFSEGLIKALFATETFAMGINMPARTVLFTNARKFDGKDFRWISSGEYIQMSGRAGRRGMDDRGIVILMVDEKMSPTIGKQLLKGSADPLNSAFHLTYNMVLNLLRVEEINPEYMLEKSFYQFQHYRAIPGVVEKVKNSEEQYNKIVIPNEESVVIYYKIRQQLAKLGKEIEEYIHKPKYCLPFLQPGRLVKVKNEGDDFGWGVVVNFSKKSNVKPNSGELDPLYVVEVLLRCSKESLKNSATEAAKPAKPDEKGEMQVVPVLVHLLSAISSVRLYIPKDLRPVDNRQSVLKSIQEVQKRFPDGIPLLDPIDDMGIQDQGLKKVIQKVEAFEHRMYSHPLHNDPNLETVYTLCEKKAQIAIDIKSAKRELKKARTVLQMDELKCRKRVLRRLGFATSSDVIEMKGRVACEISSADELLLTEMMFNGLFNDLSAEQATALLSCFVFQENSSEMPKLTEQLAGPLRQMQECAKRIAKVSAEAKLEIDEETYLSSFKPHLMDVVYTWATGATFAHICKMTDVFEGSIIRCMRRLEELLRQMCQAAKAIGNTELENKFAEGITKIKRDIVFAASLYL
Further: in the data inactive means no Kd found up to 30 µM.

Kd [1] | Kd [2] | Kd [3] | Kd [4] | Kd [5] | Kd [6] | SMILES
> 30 µM (inactive) | > 30 µM (inactive) | 0.746 µM (active) | > 30 µM (inactive) | > 30 µM (inactive) | > 30 µM (inactive) | COc1cc2nccc(Oc3ccc(NC(=O)C4(C(=O)Nc5ccc(F)cc5)CC4)cc3)c2cc1OC [CABOZANTINIB]
> 30 µM (inactive) | > 30 µM (inactive) | > 30 µM (inactive) | > 30 µM (inactive) | > 30 µM (inactive) | > 30 µM (inactive) | CNC(=O)c1cccc(-c2ccc3c(N4CCOC[C@@H]4C)nc(N4CCOC[C@@H]4C)nc3n2)c1 [VISTUSERTIB]
> 30 µM (inactive) | > 30 µM (inactive) | > 30 µM (inactive) | > 30 µM (inactive) | > 30 µM (inactive) | > 30 µM (inactive) | S=C(NCc1ccc2c(c1)OCO2)N1CCN(c2ncnc3c2oc2ccccc23)CC1 [AMUVATINIB]
> 30 µM (inactive) | > 30 µM (inactive) | > 30 µM (inactive) | > 30 µM (inactive) | > 30 µM (inactive) | > 30 µM (inactive) | COc1ccc(-c2ccc3ncc4c(c3c2)n(-c2ccc(N3CCNCC3)c(C(F)(F)F)c2)c(=O)n4C)cn1 [BGT-226 FREE BASE]
> 30 µM (inactive) | > 30 µM (inactive) | > 30 µM (inactive) | > 30 µM (inactive) | > 30 µM (inactive) | > 30 µM (inactive) | COc1cc2ncnc3c2cc1OCCCCCN(C)Cc1ccc(Br)cc1N3 [JNJ-26483327]
> 30 µM (inactive) | > 30 µM (inactive) | > 30 µM (inactive) | > 30 µM (inactive) | > 30 µM (inactive) | > 30 µM (inactive) | O=C(Nc1ccc(OC(F)(F)F)cc1)c1sccc1NCc1ccnc2ccccc12 [OSI-930]
> 30 µM (inactive) | > 30 µM (inactive) | > 30 µM (inactive) | > 30 µM (inactive) | > 30 µM (inactive) | > 30 µM (inactive) | O=C(O)c1ccc2c(c1)nc(Nc1cccc(Cl)c1)c1ccncc12 [SILMITASERTIB]
> 30 µM (inactive) | > 30 µM (inactive) | > 30 µM (inactive) | > 30 µM (inactive) | > 30 µM (inactive) | > 30 µM (inactive) | COc1ccc2c(OCc3nnc4ccc(-c5ccccc5)nn34)ccnc2c1 [AMG-208]
> 30 µM (inactive) | > 30 µM (inactive) | > 30 µM (inactive) | > 30 µM (inactive) | > 30 µM (inactive) | > 30 µM (inactive) | O=C(NC[C@H](O)CO)c1ccncc1Nc1ccc(I)cc1F [PIMASERTIB]
> 30 µM (inactive) | > 30 µM (inactive) | > 30 µM (inactive) | > 30 µM (inactive) | > 30 µM (inactive) | > 30 µM (inactive) | C#Cc1cccc(Nc2ncnc3cc4c(cc23)OCCOCCOCCO4)c1 [ICOTINIB]

SMILES | Kd [1] | Kd [2] | Kd [3] | Kd [4] | Kd [5] | Kd [6]
C=CCN(/C=C1/C(=O)O[C@H](COC)[C@@]2(C)C1=C(O)C(=O)C1=C2[C@H](OC(C)=O)C[C@]2(C)C(=O)CC[C@@H]12)CC=C [SONOLISIB] | > 30 µM (inactive) | > 30 µM (inactive) | > 30 µM (inactive) | > 30 µM (inactive) | > 30 µM (inactive) | > 30 µM (inactive)
C=CC(=O)Nc1cc(Nc2nccc(-c3cn(C)c4ccccc34)n2)c(OC)cc1N(C)CCN(C)C [OSIMERTINIB] | > 30 µM (inactive) | > 30 µM (inactive) | > 30 µM (inactive) | > 30 µM (inactive) | > 30 µM (inactive) | > 30 µM (inactive)
Cc1c(Cn2c(C)nc3c(C(=O)O)cc(N4CCOCC4)cc32)cccc1C(F)(F)F [GSK-2636771] | > 30 µM (inactive) | > 30 µM (inactive) | > 30 µM (inactive) | > 30 µM (inactive) | > 30 µM (inactive) | > 30 µM (inactive)
